Reference: patent US20200368322A1, “METHODS OF IDENTIFYING AND USING AGENTS FOR TREATING DISEASES ASSOCIATED WITH INTESTINAL BARRIER DYSFUNCTION” (Yeda Research and Development Co. Ltd., priority 2018, published 2020)
“Also recorded” adds a separate entry of the source. No end group written: not given here.

What was measured:
[1] = test system: tight junctions of Caco2 cells; assay: Human secreted molecules library screen for tight junction modulators; assay type: cell-based; conditions: Caco2, 24 hours; ng/ml: TNFa 50, Il-15 25, CCL-20 50, CCL-23 50, FGF-1 25, FGF-10 100, BMP-10 50, UTS-2 10, UCN-1 20, EPO 10, UCN-3 20, IL-21 30, CCL-3 40, TIMP-2 100, FasLG 10
Experimental: (§1) CaCo-2 cells were purchased from ATCC. Cells were routinely grown in regular tissue culture medium (DMEM, 10% FCS, penicillin/streptomycin, GlutaMAX). For experiments with differing glucose concentrations, cells were routinely cultured in low-glucose DMEM (1 g/l glucose). Cells were seeded onto 96-well glass-bottom plates coated with either fibronectin or collagen 70 000 cells/well and allowed to grow for 24 hours to form confluent monolayer before indicated treatments.
(§2) Cell images were segmented using Morphological Segmentation ImageJ plug-in and junction tortuosity was calculated as a ratio between junction length and Euclidian distance between its ends.
A protein library, consisting of 295 human secreted proteins was used for identification of potential modulators of the barrier function of human intestinal epithelial cells.

[2] = test system: tight junctions of Caco2 cells; assay: Caco2 tight junction morphology (cingulin or ZO-1 staining, tortuosity); assay type: cell-based, human; conditions: for tight junction distortion caused by LPS: 10 mM taurine, 1 mM tryptamine, 10 mM L-homo-serine, in combination with LPS; for tight junction morphology: 10 mM acetyl-proline, 1 mM putrescine, 10 mM histamine, 5 mM spermine; for tight junction disruption phenotype (type 1 zipper-like, type 2 flower-like): known IBD mediators; for tight junctions morphology (cingulin): 50 ng/ml TNFa, 30 ng/ml IL1-b, 100 ng/ml LPS
Experimental: as §1
(§3) For high resolution images of manually selected representative fields, a DeltaVision wide field fluorescent microscope (GE Healthcare) equipped with 40×UPlanFLN or 60×/1.42 PlanApo N oil objective (Olympus) was used. For multi-well plate scanning, the following automated imaging stations were used: DeltaVision microscope with plate scanning regiment, Hermes imaging station (IDEA bio-Medical) or ImagExpress microXL imaging station (Molecular Devices) equipped by 40× air objectives. In all cases in order to cover the curvature of apical surface of epithelial monolayer 5 μm thick z-stack was acquired around the tight junction plane (identified by best focus algorithm) and resulting image was generated as a maximum projection of all optical sections.
as §2

[3] = test system: focal adhesions of Caco2 cells; assay: Caco2 cell-matrix focal adhesions (paxillin staining); assay type: cell-based, human; conditions: for focal adhesions size vs control non treated cells / enlargement of focal adhesions caused by LPS: 1 mM tryptamine, 10 mM L-homo-serine; for enlargement of focal adhesions caused by LPS: with LPS; for focal adhesions size: 10 mM acetyl-proline, 1 mM putrescine, 10 mM histamine, 5 mM spermine
Experimental: as §1, §3

Caco2 cells = assay: Traction force microscopy; assay type: cell-based, human; conditions: Caco2 islands on polyacrylamide hydrogels, 24 hours treatment
Experimental: SoftTrac 6 well plates with pre-made collagen coated 12 kPa hydrogels containing embedded 0.2 μm fluorescent beads were purchased from Matrigen. 200,000 cells per well were plated and allowed to grow for 24 hours to form epithelial islands, treated with the indicated metabolite for another 24 hours and live-imaged using DeltaVision microscope equipped with environmental chamber. After acquisition of cell and fluorescent bead images in steady state conditions, cells were detached with trypsin and imaging of beads was repeated in a relaxed state. Displacement map generation and force calculations were performed using MatLab script described in Butler et al. Am J Physiol Cell Physiol. 2002.

Molecule: Chemokine ligand 20 [CCL-20]
- TJ morphology (cingulin) in secreted molecules screen [1]: changes in TJ morphology similar to previously observed upon treatment with known pro-inflammatory mediators

Molecule: N[C@@H](CCO)C(=O)O [L-homoserine]
- effect on tight junctions in metabolite screen ([2]; Caco2 cells): Stabilization
- tight junction distortion caused by LPS ([2]; Caco2 cells): abolish tight junction distortion caused by LPS treatment alone
- focal adhesions size vs control non treated cells [3]: reduction in focal adhesions size
- enlargement of focal adhesions caused by LPS [3]: prevent enlargement focal adhesions caused by LPS treatment

Molecule: CC(=O)N1CCC[C@H]1C(=O)O [N-acetylproline]
- effect on tight junctions in metabolite screen ([2]; Caco2 cells): Disruption
- tight junction morphology ([2]; Caco2 cells): distortion of tight junction morphology
- focal adhesions size [3]: increase of focal adhesions size

Molecule: Interleukin-15 [Il-15]
- TJ morphology (cingulin) in secreted molecules screen [1]: changes in TJ morphology similar to previously observed upon treatment with known pro-inflammatory mediators

Molecule: Fibroblast growth factor 1 [FGF-1]
- TJ morphology (cingulin) in secreted molecules screen [1]: changes in TJ morphology similar to previously observed upon treatment with known pro-inflammatory mediators

Molecule: Cc1ccc2c(c1)C(=O)C1(O)CCN(c3ccccc3)C1=N2 (stereo not shown) [blebbistatin, reference compound]
- forces applied to the substrate (cell contractility) (Caco2 cells): cause cell relaxation
- disruptive effect of LPS and histamine on tight junctions ([2]; Caco2 cells, co-treatment with 20 μM blebbistatin): abolishes disruptive effect of LPS and histamine on tight junctions
- focal adhesions enlarged by LPS or histamine ([3]; co-treatment with 20 μM blebbistatin): reduction of focal adhesions

Molecule: Interleukin-21 [IL-21]
- distortion of tight junctions on co-treatment of stabilizer with disruptor ([2]; Caco2 cells, cingulin): abolished distortion of tight junctions observed in the treatment with disruptors alone
- TJ tortuosity on co-treatment of disruptor with stabilizer ([2]; Caco2 cells, N≥200): reduces tortuosity to the level of untreated control
- TJ morphology (cingulin) in secreted molecules screen [1]: improvement of TJ morphology in comparison to non-treated control
- enlargement of focal adhesions on co-treatment with disruptor ([3]; paxilin): prevents enlargement of focal adhesions caused by treatments with disruptors only

Molecule: Urotensin 2 (ETPDCFWKYCV; ends and bridges not checked; cysteine pairing not given here; UniProt O95399 114-124, looked up) [UTS-2]
- TJ morphology (cingulin) in secreted molecules screen [1]: changes in TJ morphology similar to previously observed upon treatment with known pro-inflammatory mediators

Molecule: TNFa
- tight junction disruption phenotype (type 1 zipper-like, type 2 flower-like) ([2]; Caco2 cells): type 1
- tight junctions morphology (cingulin) ([2]; Caco2 cells): significant alteration in tight junctions morphology
- TJ morphology (cingulin) in secreted molecules screen [1]: changes in TJ morphology similar to previously observed upon treatment with known pro-inflammatory mediators

Molecule: NCCCNCCCCNCCCN [spermine]
- effect on tight junctions in metabolite screen ([2]; Caco2 cells): Disruption
- tight junction disruption phenotype (type 1 zipper-like, type 2 flower-like) ([2]; Caco2 cells): type 2
- tight junction morphology ([2]; Caco2 cells): distortion of tight junction morphology
- tight junction phenotype in combination with LPS ([2]; Caco2 cells, type 2 disruptor plus LPS): double effect
- focal adhesions size [3]: increase of focal adhesions size

Molecule: Urocortin 1 (DNPSLSIDLTFHLLRTLLELARTQSQRERAEQNRIIFDSV; ends and bridges not checked; UniProt P55089 83-122, looked up) [UCN-1]
- TJ morphology (cingulin) in secreted molecules screen [1]: changes in TJ morphology similar to previously observed upon treatment with known pro-inflammatory mediators

Molecule: NCCc1c[nH]c2ccccc12 [tryptamine]
- forces applied to the substrate (cell contractility) (Caco2 cells): cause cell relaxation
- recovery of TJ structure on replacement of disruptors with stabilizer ([2]; CaCo2 cells pretreated with LPS, histamine or putrescine, even in the presence of the disruptors): full recovery of TJ structure
- effect on tight junctions in metabolite screen ([2]; Caco2 cells): Stabilization
- tight junction distortion caused by LPS ([2]; Caco2 cells): abolish tight junction distortion caused by LPS treatment alone
- disrupting activity of dysbiotic fecal extract ([2]; Caco2 cells, extract combined with 1 mM tryptamine or fecal extract from healthy animals): neutralized
- focal adhesions size vs control non treated cells [3]: reduction in focal adhesions size
- enlargement of focal adhesions caused by LPS [3]: prevent enlargement focal adhesions caused by LPS treatment

Molecule: Tissue metalloprotease inhibitor 2 [TIMP-2]
- TJ morphology (cingulin) in secreted molecules screen [1]: improvement of TJ morphology in comparison to non-treated control

Molecule: Urocortin 3 (FTLSLDVPTNIMNLLFNIAKAKNLRAQAAANAHLMAQI; ends and bridges not checked; UniProt Q969E3 120-157, looked up) [UCN-3]
- TJ morphology (cingulin) in secreted molecules screen [1]: changes in TJ morphology similar to previously observed upon treatment with known pro-inflammatory mediators

Molecule: IL1-b: cytokine, known pro-inflammatory IBD mediator
- tight junctions morphology (cingulin) ([2]; Caco2 cells): significant alteration in tight junctions morphology

B1: IL-22: human non-inflammatory cytokine (protein, UniProt Q9GZX6 34-179, looked up)
Interleukin-22: APISSHCRLDKSNFQQPYITNRTFMLAKEASLADNNTDVRLIGEKLFHGVSMSERCYLMKQVLNFTLEEVLFPQSDRFQPYMQEVVPFLARLSNRLSTCHIEGDDLHIQRNVQKLKDTVKKLGESGEIKAIGELDLLFMSLRNACI
- tight junction morphology on co-treatment with pro-inflammatory agents ([2]; Caco2 cells, 100 ng/ml IL-22 plus TNFa, IL1-b or LPS): blocked; also recorded: completely restored normal tight junction morphology

B2: Chemokine ligand 3 (protein, UniProt P10147 24-92, looked up)
C-C motif chemokine 3: SLAADTPTACCFSYTSRQIPQNFIADYFETSSQCSKPGVIFLTKRSRQVCADPSEEWVQKYVSDLELSA
- TJ morphology (cingulin) in secreted molecules screen [1]: improvement of TJ morphology in comparison to non-treated control

B3: Fas ligand (protein, UniProt P48023 130-281, looked up)
Tumor necrosis factor ligand …: QIGHPSPPPEKKELRKVAHLTGKSNSRSMPLEWEDTYGIVLLSGVKYKKGGLVINETGLYFVYSKVYFRGQSCNNLPLSHKVYMRNSKYPQDLVMMEGKMMSYCTTGQMWARSSYLGAVFNLTSADHLYVNVSELSLVNFEESQTFFGLYKL
- TJ morphology (cingulin) in secreted molecules screen [1]: improvement of TJ morphology in comparison to non-treated control

B4: Chemokine ligand 23 (protein, UniProt P55773 22-120, looked up)
C-C motif chemokine 23: RVTKDAETEFMMSKLPLENPVLLDRFHATSADCCISYTPRSIPCSLLESYFETNSECSKPGVIFLTKKGRRFCANPSDKQVQVCMRMLKLDTRIKTRKN
- TJ morphology (cingulin) in secreted molecules screen [1]: changes in TJ morphology similar to previously observed upon treatment with known pro-inflammatory mediators

B5: Fibroblast growth factor 10 (protein, UniProt O15520 38-208, looked up)
Fibroblast growth factor 10: QALGQDMVSPEATNSSSSSFSSPSSAGRHVRSYNHLQGDVRWRKLFSFTKYFLKIEKNGKVSGTKKENCPYSILEITSVEIGVVAVKAINSNYYLAMNKKGKLYGSKEFNNDCKLKERIEENGYNTYASFNWQHNGRQMYVALNGKGAPRRGQKTRRKNTSAHFLPMVVHS
- TJ morphology (cingulin) in secreted molecules screen [1]: changes in TJ morphology similar to previously observed upon treatment with known pro-inflammatory mediators

B6: Bone morphogenetic protein 10 (protein, UniProt O95393 317-424, looked up)
Bone morphogenetic protein 10: NAKGNYCKRTPLYIDFKEIGWDSWIIAPPGYEAYECRGVCNYPLAEHLTPTKHAIIQALVHLKNSQKASKACCVPTKLEPISILYLDKGVVTYKFKYEGMAVSECGCR
- TJ morphology (cingulin) in secreted molecules screen [1]: changes in TJ morphology similar to previously observed upon treatment with known pro-inflammatory mediators
